These results are taken from paper PMC6199744, “Development of Chemical Proteomics for the Folateome and Analysis of the Kinetoplastid Folateome” (ACS Infectious Diseases, 2018).

Common to all, as to assay type: binding
The target in assay [1] is T1, HeLa cell extract proteins (Homo sapiens, UniProt P62333).
T1 construct: endogenous in cells; host or cells: HeLa cell extract

Assay [2] concerns the target T2, HeLa cell extract proteins (Homo sapiens, UniProt P31040).
T2 construct: endogenous in cells; host or cells: HeLa cell extract

For assay [3], the target named is T3, HeLa cell extract proteins (Homo sapiens, UniProt Q5R3I4).
T3 construct: endogenous in cells; host or cells: HeLa cell extract
T3 sequence (Q5R3I4 whole entry): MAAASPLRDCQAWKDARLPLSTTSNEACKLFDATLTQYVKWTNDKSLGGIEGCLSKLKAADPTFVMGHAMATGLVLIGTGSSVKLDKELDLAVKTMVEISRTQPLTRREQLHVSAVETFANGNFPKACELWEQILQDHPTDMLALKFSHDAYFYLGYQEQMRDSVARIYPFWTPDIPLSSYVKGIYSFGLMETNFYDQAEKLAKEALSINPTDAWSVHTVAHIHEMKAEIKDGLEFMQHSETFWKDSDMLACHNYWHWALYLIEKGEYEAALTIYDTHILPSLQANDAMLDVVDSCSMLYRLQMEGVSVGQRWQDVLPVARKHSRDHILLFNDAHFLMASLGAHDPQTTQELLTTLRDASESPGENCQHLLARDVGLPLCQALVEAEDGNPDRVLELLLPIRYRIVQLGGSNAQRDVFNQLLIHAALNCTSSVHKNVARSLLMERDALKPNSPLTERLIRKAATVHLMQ

Assay [4] concerns the target T4, HeLa cell extract proteins (Homo sapiens, UniProt Q8TCG1).
T4 construct: endogenous in cells; host or cells: HeLa cell extract

The target of assay [5] is T5, HeLa cell extract proteins (Homo sapiens, UniProt Q99439).
T5 construct: endogenous in cells; host or cells: HeLa cell extract
T5 sequence (Q99439 1-309): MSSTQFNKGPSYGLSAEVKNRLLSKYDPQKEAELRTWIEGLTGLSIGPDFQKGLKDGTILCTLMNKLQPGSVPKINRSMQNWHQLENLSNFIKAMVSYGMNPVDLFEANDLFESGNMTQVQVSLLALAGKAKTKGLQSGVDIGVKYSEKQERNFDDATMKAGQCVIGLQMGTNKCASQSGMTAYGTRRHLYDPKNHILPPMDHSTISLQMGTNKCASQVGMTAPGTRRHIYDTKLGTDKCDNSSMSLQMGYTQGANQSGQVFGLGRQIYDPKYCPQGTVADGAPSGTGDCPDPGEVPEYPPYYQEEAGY

Assay [6] deals with T6, HeLa cell extract proteins (Homo sapiens, UniProt P63151).
T6 construct: endogenous in cells; host or cells: HeLa cell extract
T6 sequence (P63151 1-447): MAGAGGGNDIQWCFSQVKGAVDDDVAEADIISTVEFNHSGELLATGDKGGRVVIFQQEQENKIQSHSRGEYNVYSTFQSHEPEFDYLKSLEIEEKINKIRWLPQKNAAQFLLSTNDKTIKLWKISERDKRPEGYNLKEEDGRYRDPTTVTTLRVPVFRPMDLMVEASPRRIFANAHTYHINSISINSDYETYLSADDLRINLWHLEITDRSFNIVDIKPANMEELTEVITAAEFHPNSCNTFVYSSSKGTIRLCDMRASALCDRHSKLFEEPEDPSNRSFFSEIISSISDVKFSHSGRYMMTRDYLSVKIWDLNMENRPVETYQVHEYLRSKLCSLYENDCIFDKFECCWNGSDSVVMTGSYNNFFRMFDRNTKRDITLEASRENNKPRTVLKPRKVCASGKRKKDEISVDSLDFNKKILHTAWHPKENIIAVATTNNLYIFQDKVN

In assay [7] the target is T7, HeLa cell extract proteins (Homo sapiens, UniProt Q5SRE5).
T7 construct: endogenous in cells; host or cells: HeLa cell extract
T7 sequence (Q5SRE5 whole entry): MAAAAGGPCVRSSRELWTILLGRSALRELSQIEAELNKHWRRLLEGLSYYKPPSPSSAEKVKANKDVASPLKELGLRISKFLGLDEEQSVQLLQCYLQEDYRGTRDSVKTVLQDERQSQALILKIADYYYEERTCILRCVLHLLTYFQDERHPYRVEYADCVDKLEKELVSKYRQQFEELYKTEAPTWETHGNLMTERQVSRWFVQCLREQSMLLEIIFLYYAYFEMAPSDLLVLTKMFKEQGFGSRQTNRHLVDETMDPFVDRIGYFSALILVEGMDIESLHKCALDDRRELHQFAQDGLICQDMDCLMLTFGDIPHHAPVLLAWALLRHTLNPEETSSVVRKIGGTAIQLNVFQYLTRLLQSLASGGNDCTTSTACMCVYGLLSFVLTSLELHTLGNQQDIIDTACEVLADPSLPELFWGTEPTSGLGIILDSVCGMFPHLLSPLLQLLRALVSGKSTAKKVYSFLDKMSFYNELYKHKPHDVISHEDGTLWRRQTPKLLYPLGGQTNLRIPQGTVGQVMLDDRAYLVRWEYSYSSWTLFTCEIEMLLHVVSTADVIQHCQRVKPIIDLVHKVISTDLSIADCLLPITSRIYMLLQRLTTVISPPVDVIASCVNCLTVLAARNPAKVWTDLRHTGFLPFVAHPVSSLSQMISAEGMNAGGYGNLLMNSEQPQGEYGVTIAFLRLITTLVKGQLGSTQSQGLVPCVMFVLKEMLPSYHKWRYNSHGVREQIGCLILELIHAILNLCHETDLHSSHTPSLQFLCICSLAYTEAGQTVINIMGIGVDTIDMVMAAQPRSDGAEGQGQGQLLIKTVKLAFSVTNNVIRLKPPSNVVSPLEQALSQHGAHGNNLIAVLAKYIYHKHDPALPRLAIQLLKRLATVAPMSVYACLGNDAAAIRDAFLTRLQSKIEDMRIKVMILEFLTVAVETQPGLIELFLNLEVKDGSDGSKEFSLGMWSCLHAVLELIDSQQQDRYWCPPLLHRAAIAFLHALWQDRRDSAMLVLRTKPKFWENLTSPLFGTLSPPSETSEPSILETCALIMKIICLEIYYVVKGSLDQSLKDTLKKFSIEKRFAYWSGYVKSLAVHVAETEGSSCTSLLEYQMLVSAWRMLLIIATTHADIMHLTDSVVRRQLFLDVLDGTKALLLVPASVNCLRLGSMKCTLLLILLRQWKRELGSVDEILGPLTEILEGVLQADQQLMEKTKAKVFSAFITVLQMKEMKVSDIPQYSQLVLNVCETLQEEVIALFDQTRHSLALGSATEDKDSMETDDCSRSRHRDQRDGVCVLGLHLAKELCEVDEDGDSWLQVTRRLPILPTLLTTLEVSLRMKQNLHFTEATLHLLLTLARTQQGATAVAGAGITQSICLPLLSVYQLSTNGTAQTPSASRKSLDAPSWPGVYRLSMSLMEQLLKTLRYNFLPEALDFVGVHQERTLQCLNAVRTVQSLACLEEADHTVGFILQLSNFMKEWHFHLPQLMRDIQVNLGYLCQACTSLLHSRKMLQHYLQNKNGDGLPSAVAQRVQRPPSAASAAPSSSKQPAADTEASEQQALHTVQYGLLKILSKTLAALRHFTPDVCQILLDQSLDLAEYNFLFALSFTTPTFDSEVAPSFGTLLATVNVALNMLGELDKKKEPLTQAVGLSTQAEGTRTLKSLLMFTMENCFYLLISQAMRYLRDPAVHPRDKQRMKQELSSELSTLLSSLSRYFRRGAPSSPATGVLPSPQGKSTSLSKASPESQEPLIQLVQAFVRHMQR

In assay [8] the target is T8, HeLa cell extract proteins (Homo sapiens, UniProt P24752).
T8 construct: endogenous in cells; host or cells: HeLa cell extract
T8 sequence (P24752 34-427): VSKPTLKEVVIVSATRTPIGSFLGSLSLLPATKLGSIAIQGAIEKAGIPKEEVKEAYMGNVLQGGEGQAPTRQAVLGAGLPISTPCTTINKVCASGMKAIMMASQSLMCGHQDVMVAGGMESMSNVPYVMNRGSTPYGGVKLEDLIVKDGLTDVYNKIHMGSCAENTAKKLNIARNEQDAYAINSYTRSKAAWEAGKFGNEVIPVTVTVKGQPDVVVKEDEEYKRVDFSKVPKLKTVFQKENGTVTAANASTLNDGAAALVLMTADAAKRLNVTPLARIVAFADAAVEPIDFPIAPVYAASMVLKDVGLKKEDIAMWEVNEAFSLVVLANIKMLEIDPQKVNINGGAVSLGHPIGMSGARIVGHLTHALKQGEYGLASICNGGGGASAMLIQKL

For assay [9], the target named is T9, HeLa cell extract proteins (Homo sapiens, UniProt O95197).
T9 construct: endogenous in cells; host or cells: HeLa cell extract
T9 sequence (O95197 1-1032): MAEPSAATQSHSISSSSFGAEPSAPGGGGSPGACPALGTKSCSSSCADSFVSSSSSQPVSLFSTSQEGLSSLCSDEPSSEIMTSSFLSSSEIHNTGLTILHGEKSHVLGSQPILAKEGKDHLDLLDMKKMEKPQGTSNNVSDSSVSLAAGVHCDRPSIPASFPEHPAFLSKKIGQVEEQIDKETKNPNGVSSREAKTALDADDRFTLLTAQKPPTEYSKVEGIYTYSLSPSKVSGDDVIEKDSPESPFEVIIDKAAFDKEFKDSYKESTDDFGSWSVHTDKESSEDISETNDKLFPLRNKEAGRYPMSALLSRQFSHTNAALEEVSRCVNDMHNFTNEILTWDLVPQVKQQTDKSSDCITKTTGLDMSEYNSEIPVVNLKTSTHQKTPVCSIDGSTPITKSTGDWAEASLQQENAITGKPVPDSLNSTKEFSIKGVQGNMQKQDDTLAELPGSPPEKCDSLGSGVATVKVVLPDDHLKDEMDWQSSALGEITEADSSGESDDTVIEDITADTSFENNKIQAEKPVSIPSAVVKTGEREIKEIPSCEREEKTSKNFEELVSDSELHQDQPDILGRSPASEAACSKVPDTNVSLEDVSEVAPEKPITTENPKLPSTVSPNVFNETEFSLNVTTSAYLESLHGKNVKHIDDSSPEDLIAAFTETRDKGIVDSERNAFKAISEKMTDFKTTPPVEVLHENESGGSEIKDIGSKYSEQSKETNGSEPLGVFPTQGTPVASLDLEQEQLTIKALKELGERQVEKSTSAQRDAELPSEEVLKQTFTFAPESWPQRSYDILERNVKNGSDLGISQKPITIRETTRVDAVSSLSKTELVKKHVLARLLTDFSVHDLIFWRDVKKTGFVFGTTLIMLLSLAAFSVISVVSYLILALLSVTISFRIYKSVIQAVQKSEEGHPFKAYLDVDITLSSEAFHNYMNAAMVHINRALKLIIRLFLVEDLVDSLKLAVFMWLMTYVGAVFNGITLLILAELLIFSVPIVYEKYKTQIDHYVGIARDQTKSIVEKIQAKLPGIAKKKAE

The target of assay [10] is T10, HeLa cell extract proteins (Homo sapiens, UniProt P61981).
T10 construct: endogenous in cells; host or cells: HeLa cell extract
T10 sequence (P61981 1-247): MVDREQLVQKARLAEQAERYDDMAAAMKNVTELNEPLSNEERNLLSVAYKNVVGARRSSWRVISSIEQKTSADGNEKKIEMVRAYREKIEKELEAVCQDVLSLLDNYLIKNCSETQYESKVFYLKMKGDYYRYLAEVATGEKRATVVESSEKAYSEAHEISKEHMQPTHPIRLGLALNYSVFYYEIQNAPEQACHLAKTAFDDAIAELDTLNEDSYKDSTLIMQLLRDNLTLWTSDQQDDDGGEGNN

Setting [11] is: captured protein KIAA1524, HeLa.
Where [12] appears, read: HeLa, protein YWHAG (14-3-3 PROTEIN GAMMA.).
Setting [13] is: HeLa, protein TTC38 (HYPOTHETICAL PROTEIN LOC55020).

Like-named read-outs stand apart in the source and are kept apart here.

T2 sequence (P31040 43-664): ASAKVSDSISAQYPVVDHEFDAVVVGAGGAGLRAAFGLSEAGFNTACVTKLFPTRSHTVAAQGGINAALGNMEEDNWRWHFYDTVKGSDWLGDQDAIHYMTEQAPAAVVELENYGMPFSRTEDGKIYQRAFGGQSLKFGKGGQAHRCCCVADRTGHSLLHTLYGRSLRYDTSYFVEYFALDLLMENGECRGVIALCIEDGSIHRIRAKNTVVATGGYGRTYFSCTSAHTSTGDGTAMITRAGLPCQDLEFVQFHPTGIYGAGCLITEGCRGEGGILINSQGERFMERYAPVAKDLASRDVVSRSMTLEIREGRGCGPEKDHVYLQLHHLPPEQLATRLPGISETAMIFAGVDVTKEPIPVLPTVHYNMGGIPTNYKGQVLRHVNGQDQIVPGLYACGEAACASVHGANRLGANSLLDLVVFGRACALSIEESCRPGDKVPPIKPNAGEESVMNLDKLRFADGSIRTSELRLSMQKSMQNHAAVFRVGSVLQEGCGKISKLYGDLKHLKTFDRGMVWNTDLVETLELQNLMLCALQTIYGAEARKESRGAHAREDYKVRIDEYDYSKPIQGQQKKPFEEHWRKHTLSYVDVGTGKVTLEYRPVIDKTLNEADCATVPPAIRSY
T1 sequence (P62333 whole entry): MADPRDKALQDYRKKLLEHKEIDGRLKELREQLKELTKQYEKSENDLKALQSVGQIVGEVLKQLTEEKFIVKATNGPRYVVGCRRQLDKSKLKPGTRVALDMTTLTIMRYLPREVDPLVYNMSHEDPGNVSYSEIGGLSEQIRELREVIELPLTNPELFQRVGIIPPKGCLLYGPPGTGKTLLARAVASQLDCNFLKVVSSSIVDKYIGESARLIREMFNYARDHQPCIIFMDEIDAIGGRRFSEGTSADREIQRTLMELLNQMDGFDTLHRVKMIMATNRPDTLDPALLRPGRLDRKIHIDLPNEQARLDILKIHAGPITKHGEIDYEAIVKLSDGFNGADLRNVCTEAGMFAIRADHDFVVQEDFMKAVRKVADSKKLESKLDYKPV

For `Nc1nc2cccc(-c3ccccc3)c2n1Cc1ccc(Cl)c(Cl)c1` [compound 3], the “fold changes relative to vehicle control” value in assay [1] (protein PSMC6, HeLa) came to 1.2; in [2] (protein SDHA, HeLa) it was 1.02; in [3] (HeLa, protein TTC38) it was 1; in assay [4] (setting [11]) it was 0.98; in assay [5] (HeLa, protein CNN2), 1.07; in assay [6] (protein PPP2R2A, HeLa) it was 0.99. For the same compound, the “fold changes relative to vehicle control” value in assay [7] (HeLa, protein NUP188) amounted to 1.07; in assay [8] (protein ACAT1, HeLa), 0.84; in assay [9] (protein RTN3, HeLa), 0.9; in assay [10] (setting [12]), 0.97 fold.
Consider `NCCOCCOCC(=O)Nc1nc2ncc(CNc3ccc(C(=O)NC(CCC(=O)O)C(=O)O)cc3)nc2c(=O)[nH]1` (stereo not shown) [compound 6], for which the “fold changes relative to vehicle control” value in assay [1] (protein PSMC6, HeLa) is listed as 1.07; in assay [2] (HeLa, captured protein SDHA), 1.06; in assay [3] (setting [13]) it was 0.89; in [4] (HeLa, protein KIAA1524), 0.94; in assay [5] (HeLa, captured protein CNN2), 0.93; in assay [6] (HeLa, captured protein PPP2R2A) it was 0.97. For the same compound, the “fold changes relative to vehicle control” value in assay [7] (HeLa, captured protein NUP188) was 1.17; in assay [8] (protein ACAT1, HeLa), 1.31; in assay [9] (protein RTN3, HeLa), 0.94; in assay [10] (protein YWHAG, HeLa) it was 1.26.
Turning to `Nc1nc2[nH]cc(CCc3ccc(C(=O)N[C@@H](CCC(=O)O)C(=O)O)cc3)c2c(=O)[nH]1` [PTX, pemetrexed], the “fold changes relative to vehicle control” value in [1] was 0.92; in assay [2], 0.97; in assay [3], 0.93; in assay [4] it was 0.87; in [5], 0.96; in [6], 0.97. Moreover, the “fold changes relative to vehicle control” value in assay [7] worked out at 1.17; in assay [8] it was 0.9; in assay [9], 0.85; in assay [10], 1.09.
With `Nc1nc2c(c(=O)[nH]1)N(C=O)C(CNc1ccc(C(=O)N[C@@H](CCC(=O)O)C(=O)O)cc1)CN2` (stereo partly shown) [LEU, leucovorin], the “fold changes relative to vehicle control” value in assay [1] (protein PSMC6, HeLa) was 0.84; in [2] (HeLa, captured protein SDHA), 1; in assay [3] (HeLa, protein TTC38 (HY[…] LOC55020)) it was 1.03; in assay [4] (HeLa, protein KIAA1524), 0.87; in assay [5] (HeLa, captured protein CNN2) it was 0.97; in assay [6] (HeLa, captured protein PPP2R2A), 0.97. For the same compound, the “fold changes relative to vehicle control” value in assay [7] (HeLa, captured protein NUP188) is recorded as 1.13; in assay [8] (protein ACAT1, HeLa) it was 1; in [9] (protein RTN3, HeLa), 0.97; in assay [10] (protein YWHAG, HeLa), 1.02.
For the compound `CCCCCCOc1ccc(Cc2cnc(N)nc2N)cc1` [compound 1], the “fold changes relative to vehicle control” value in assay [1] (protein PSMC6, HeLa) was 1.1; in assay [2] (protein SDHA, HeLa), 1.19; in [3] (HeLa, protein TTC38), 1; in assay [4] (setting [11]) it was 0.97; in assay [5] (HeLa, protein CNN2) it was 0.81; in assay [6] (protein PPP2R2A, HeLa), 0.92. The “fold changes relative to vehicle control” value amounted to 1.07 in [7] (HeLa, protein NUP188); 1.22 in assay [8] (protein ACAT1, HeLa); 1 in assay [9] (protein RTN3, HeLa); 1.45 fold in assay [10] (setting [12]).
`NCCCNc1ccc(C(=O)NC(CCC(=O)O)C(=O)O)cc1` (stereo not shown) [compound 7]: the “fold changes relative to vehicle control” value turned out to be 0.96 in assay [1] (protein PSMC6, HeLa); 0.92 in assay [2] (HeLa, captured protein SDHA); 0.99 in [3] (setting [13]); 0.89 in [4] (HeLa, protein KIAA1524); 1.33 in [5] (HeLa, captured protein CNN2); 0.87 in assay [6] (HeLa, captured protein PPP2R2A). Further, the “fold changes relative to vehicle control” value in assay [7] (HeLa, captured protein NUP188) worked out at 1.07; in assay [8] (protein ACAT1, HeLa), 0.87; in assay [9] (protein RTN3, HeLa) it was 0.84; in [10] (protein YWHAG, HeLa), 0.91.
With `CCCCCCOc1cccc(Cc2cnc(N)nc2N)c1` [compound 2], the “fold changes relative to vehicle control” value was found to be 1.57 in assay [1] (protein PSMC6, HeLa); 1.2 in assay [2] (protein SDHA, HeLa); 0.68 in assay [3] (HeLa, protein TTC38); 1.09 in [4] (setting [11]); 0.95 in [5] (HeLa, protein CNN2); 1.05 in assay [6] (protein PPP2R2A, HeLa). Besides, the “fold changes relative to vehicle control” value in assay [7] (HeLa, protein NUP188) is given as 1.08; in assay [8] (protein ACAT1, HeLa), 1.75; in [9] (protein RTN3, HeLa), 1.14; in assay [10] (setting [12]), 2.09 fold.
